Data published in patent publication US20060281695A1, “Control of parasites in animals by N-[(phenyloxy)phenyl]-1,1,1-trifluoromethanesulfonamide and N-[(phenylsulfanyl)phenyl]-1,1,1-trifluoromethanesulfonamide derivatives” (priority 2005, published 2006).

Columns and labels:
[1] = tested on: cat flea (Ctenocephalides felis); assay: Ctenocephalides felis adulticide assay: single dose screen on treated glass surface (% mortality at 1.26 μg/cm^2, 24 hours); assay type: in vivo; settings: for mortality at 1.26 µg/cm2, 1.26 µg/cm2: Ctenocephalides felis, 24 h, read-out: Ctenocephalides felis Mortality (%) 24 h; for Ctenocephalides felis Mortality (%) 24 h: in vivo
Description: (§1) The LC50 value is the concentration, expressed as μg/cm^2, that was required to kill 50% of the sample of cat fleas on contact with the tested compound. Certain tests are also reported as the percent of a sample of cat fleas that were killed at a concentration of 1.26 μg/cm^2 (“% mortality”), for the compounds tested in this way.
b) Ctenocephalides felis Adulticide Assay: C.felis single dose screen
Mortality of fleas is the primary endpoint in the assay. […] The concentration chosen (1.26 μg/cm^2) is higher than that known to kill 90% of cat fleas (LC90) using the reference compound, permethrin.
(§2) The test species employed was the cat flea (Ctenocephalides felis). The strain used was obtained from external suppliers as pupae and held in the laboratory under testing conditions until the adults had emerged. Fifteen (15) fleas were used in a minimum of four replicates against a single concentration level (approximately 60 fleas). The insects were selected to be in the adult life stage, aged between 3 and 7 days post emergence.
The compounds to be tested were supplied as solids and were prepared in acetone as described below prior to testing. Samples were stored in a refrigerator (5±1° C.) unless otherwise specified.
During the mortality testing, the temperature was maintained at 25±1° C. Humidity was maintained at 75±5%. The base (area=159 mm^2) of a 100 mL glass Erlenmeyer (conical) flask provided the treatment surface. Flasks were pre-treated with Coatasil™ glass treatment to maximise bio-availability of test compounds by preventing them from binding to glass the surface. The base of the 100 mL Erlenmeyer flask was treated with 0.5 mL of test sample in acetone and gently swirled. This volume was sufficient to cover the base of the flask. Flasks were left to dry for 24 hours before flea exposure.
Adult cat fleas were placed into a sorting chamber, which allowed fleas to jump into the Erlenmeyer flasks. Fifteen (15) adult cat fleas were collected in each flask. The top of the flasks were then covered in Parafilm™ and small holes were made to allow gas exchange. A 0.5 mL volume of acetone as a solvent control was applied to the base of an Erlenmeyer flask and the testing proceeded in the same manner described above. […] Pooled 24 hour mortality data were converted to percentages and are summarized by Table 4, below.
(§3) In Table 7, provided below, are listed the Haemonchus contortus LD99 values (measured in micrograms/mL), the Ctenocephalides felis rapid screening values (measured in % mortality), the Ctenocephalides felis LC50 values (measured in micrograms/cm^2) and the Rhipicephalus sanguineus rapid screening values (measured in % mortality) for selected compounds in accordance with the present invention.

[2] = tested on: cat flea (Ctenocephalides felis); assay: Ctenocephalides felis adulticide assay: dose response on treated glass surface (LC50, 24 hours); assay type: in vivo; settings: adult cat fleas, 24 h mortality, probit analysis
Description: as §1
c) Ctenocephalides felis Adulticide Assay: C. felis dose response The purpose of this example is to determine the LC50 when cat fleas are contacted with a glass surface treated with sample compounds or formulations prepared as described above. Mortality of fleas is defined as follows: fleas are considered dead if they don't move or are on their sides and unable to walk or right themselves. LC50: Lethal Concentration 50— concentration of glass surface treatment at which 50% of the cat fleas are killed.
as §2, with “for each dose” for “against a single concentration”, “(total of” for “(approximately”, “fleas per dose level).” for “fleas).”
The compounds to be tested were dissolved in acetone just prior to testing. Samples of compounds were stored in a refrigerator (5±1° C.) unless otherwise specified. During the mortality testing, the temperature was maintained at 25±1° C. Humidity was maintained at 75±5%. The base (area=159 mm^2) of a 100 mL glass Erlenmeyer (conical) flask provided the treatment surface. Flasks were pre-treated with Coatasil™ glass treatment to maximise bio-availability of test compounds by preventing them from binding to the glass surface.
Six dose levels (concentrations) of test sample, in the form of a serial dilution, were derived from a pilot study and covered a range that produced very low to very high mortality. The base of the 100 mL Erlenmeyer flask was treated with 0.5 mL of test sample in acetone and gently swirled. This volume was sufficient to cover the base of the flask. Flasks were left to dry for 24 hours before flea exposure. Adult cat fleas were lightly anaesthetised by cooling and then placed into a sorting chamber, which allowed fleas to revive and jump into the Erlenmeyer flasks. Fifteen (15) adult cat fleas were collected in each flask. The top of the flasks were then covered in Parafilm™ and small holes made to allow gas exchange. A 0.5 mL volume of acetone was applied to the base of an Erlenmeyer flask and the testing proceeded in the same manner described above. Cat fleas in the treatment containers were held under testing conditions for 24 hours. Mortality resulting from the treatments was recorded at 24 hours. […] 3rd ed. Cambridge Univ. Press, London (1971)].
as §3

[3] = tested on: Brown Dog Tick (Rhipicephalus sanguineus); assay: Topical application on brown dog ticks, single dose screen (% mortality at 24 hours); assay type: in vivo; settings: adult brown dog ticks, topical 1 μL in acetone on abdomen, single dose 10 μg per tick
Description: d) Topical Application On Brown Dog Ticks (Rhipicephalus sanguineus)
The aim of the test is to determine the presence of significant acaricidal activity in sample compounds or formulations when applied topically on brown dog ticks. A tick is defined as dead if it gives no apparent response when: (i) touched lightly and (ii) then observed for 1 minute. To assess the experimental compound for acaricidal activity, a single dose level is chosen based on known results from previous experiments with a commercially available active reference compound.
In the present example, both permethrin and fipronil were employed as reference compounds. The insect species tested was the Brown Dog Tick (Rhipicephalus sanguineus). Mixed sex adult ticks were used for tests. The strain used was cultured from a field strain and supplied as unfed adult ticks (mixed sex). Ticks were maintained in controlled conditions (temp. 18°±2° C., humidity 75±5% RH).
Test compounds (formulations or active ingredients) were stored in a refrigerator (5±1° C.) unless otherwise specified. The temperature was maintained at 25±1° C. and the humidity was ambient. The screening dose chosen was higher than that known kill 90% of insects (LD90) using the reference compound. In the case of topical application of active compounds on adult ticks, the reference compound was fipronil and the dose chosen was 10 μg of active per tick (=10 μg of fipronil/1 μl of acetone). Ticks were each treated on the abdomen with 1 μL of a single dose level of test sample in acetone; ten ticks were treated with solvent only (acetone) in each test. Tests were replicated 4 times (total of 40 ticks treated). Ticks were held in recovery containers maintained under appropriate rearing conditions for 24 hours. Mortality resulting from the treatments was recorded at 24 hours. Pooled 24 hour mortality data were converted to percentages.
as §3

Haemonchus contortus = Haemonchus contortus larvacidal (larval development) assay, LD99; assay type: in vitro
Description: The LD99 value is the dose, expressed as […], that was required to kill 99% of a sample of Haemonchus contortus.
a) Haemonchus Contortus Larvacidal Assay:
The effect of compounds on larval development was determined in the assay described by Gill et al. [International Journal of Parasitology 25:463-470 (1995)]. Briefly, in this assay, nematode eggs are applied to the surface of an agar matrix containing the test compound and then allowed to develop through to the L3, infective stage (6 days). The wells for each dilution of every compound (from highest to lowest concentration) are inspected to determine the well number corresponding to the lowest concentration at which development is inhibited in 99% of the nematode larvae present (LD99). Because well numbers correspond to a two-fold serial dilution of each compound, a titre (dilution factor) is generated as 2^n−1, where n is the well number. By dividing the highest concentration tested by the titre an LD99 value can be obtained, representing the concentration required to inhibit development in 99% of the nematode larvae present. The compounds supplied as solid and viscous liquids are dissolved in DMSO. Twelve serial one-half dilutions in DMSO solution are prepared from the stock solution, each of which is then diluted 1/5 with water. Aliquots (10 μl) of each dilution are transferred to the bioassay plates to give a final concentration range of 0.024 to 50 μg/ml.
as §3

Row | Compound | mortality at 1.26 µg/cm2, 1.26 µg/cm2 [1] [%] | Ctenocephalides felis LC50 [2] [μg/cm^2] | Rhipicephalus sanguineus Mortality (%) 24 h [3] [%] | Haemonchus contortus LD99 (Haemonchus contortus) [µg/mL] | Ctenocephalides felis Mortality (%) 24 h [1] [%]
1 | O=S(=O)(Nc1ccc(Cl)cc1Oc1ccc(Cl)cc1Cl)C(F)(F)F [Compound 1, N-[4-Chloro-2-(2,4-dichlorophenoxy)phenyl]-1,1,1-trifluoromethanesulfonamide] | 100 | 0.32 | 68 | 1.5 | 
2 | O=S(=O)(Nc1ccc(Cl)cc1Oc1ccccc1C(F)(F)F)C(F)(F)F [Compound 2] |  | 0.19 | 28 | 5.5 | 100
3 | O=S(=O)(Nc1ccc(Cl)cc1Oc1ccc(F)cc1F)C(F)(F)F [Compound 4] |  | 0.27 | 83 | 12.0 | 98
4 | O=S(=O)(Nc1ccc(Cl)cc1Oc1ccc(Cl)cc1)C(F)(F)F [Compound 5] |  | 0.66 |  | 11.0 | 100
5 | O=S(=O)(Nc1cc(Cl)ccc1Oc1ccc(Cl)cc1Cl)C(F)(F)F [Compound 8] |  | 0.59 |  | 2.75 | 62
6 | O=S(=O)(Nc1cc(C(F)(F)F)ccc1Oc1cccc(C(F)(F)F)c1)C(F)(F)F [Compound 9] |  | 0.09 | 25 | 2.5 | 94
7 | O=S(=O)(Nc1ccc(Cl)cc1Sc1ccc(Cl)cc1)C(F)(F)F [Compound 12, N-[4-Chloro-2-((4-chlorophenyl)sulfanyl)phenyl]-1,1,1-trifluoromethanesulfonamide] | 100 | 0.15 | 50 | 2.8 | 
8 | O=S(=O)(Nc1ccc(Cl)cc1Oc1ccccc1F)C(F)(F)F [Compound 14] |  | 0.05 | 98 | 13.0 | 100
9 | O=S(=O)(Nc1ccc(Cl)cc1Sc1cccc(Cl)c1)C(F)(F)F [Compound 15] |  | 0.30 |  | 5.5 | 100
10 | O=S(=O)(Nc1ccc(Cl)cc1Oc1ccc(F)c(F)c1)C(F)(F)F [Compound 16] |  | 0.78 |  | 11.0 | 100
11 | O=S(=O)(Nc1ccc(Cl)cc1Sc1ccc(F)cc1)C(F)(F)F [Compound 20] |  | 0.13 | 95 | 13.0 | 100
12 | Cc1ccccc1Oc1cc(Cl)ccc1NS(=O)(=O)C(F)(F)F [Compound 21] |  | 0.12 | 90 | 15.0 | 100
13 | O=S(=O)(Nc1ccc(Cl)cc1Oc1cccc(F)c1)C(F)(F)F [Compound 25] |  | 0.73 |  |  | 100
14 | O=S(=O)(Nc1ccc(Cl)cc1Oc1ccc(F)cc1)C(F)(F)F [Compound 26] |  | 0.33 |  |  | 100
15 | O=S(=O)(Nc1cc(C(F)(F)F)ccc1Oc1ccc(F)cc1)C(F)(F)F [Compound 30] |  | 0.71 |  |  | 100
16 | CCc1ccccc1Oc1cc(Cl)ccc1NS(=O)(=O)C(F)(F)F [Compound 38] |  | 0.75 |  |  | 95
17 | O=S(=O)(Nc1ccc(C(F)(F)F)cc1Oc1cccc(C(F)(F)F)c1)C(F)(F)F [Compound 55] |  | 1.88 |  |  | 100
18 | O=S(=O)(Nc1ccc(Cl)cc1Sc1ccccc1)C(F)(F)F [Compound 59] |  | 0.97 |  |  | 100
19 | O=S(=O)(Nc1ccc(Cl)cc1Sc1ccccc1F)C(F)(F)F [Compound 68] |  | 0.59 | 55 |  | 100
